The supplement of paper PMC10307832

Columns and labels:
Test in all cases: relative viability (nuclei count vs DMSO), 5 days (fraction); higher = more cells survive
[1] = compound: O=C(O)C(Cc1ccccc1[N+](=O)[O-])=NNc1nc(-c2ccc(Cl)c(Cl)c2)cs1 (mixture of isomers) [4EGI-1] + CCNC(=O)c1noc(-c2cc(C(C)C)c(O)cc2O)c1-c1ccc(CN2CCOCC2)cc1 [Luminespib] (partner 0.01 µM)
Outline: (§1)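 Five library-drug doses in √10 steps were combined with a fixed anchor-drug dose, or a single drug was given alone, by pin tool to lung cancer cell lines in 1536-well plates the day after seeding. Nuclei were stained and counted after 5 days. Relative viability is the nuclei count in treated wells over that in vehicle wells, taken as the median of duplicate plates.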

[2] = compound: O=C(O)C(Cc1ccccc1[N+](=O)[O-])=NNc1nc(-c2ccc(Cl)c(Cl)c2)cs1 (mixture of isomers) [4EGI-1] + CS(=O)(=O)CCNCc1ccc(-c2ccc3ncnc(Nc4ccc(OCc5cccc(F)c5)c(Cl)c4)c3c2)o1 [Lapatinib] (partner 2 µM)
Outline: as §1

[3] = compound: CN1CCN(CC1)C2=CC(=C(C=C2)NC3=NC=C4C(=N3)N(C5=CC=CC=C5C(=O)N4C)C)OC [XMD8-85] + COc1cccc2cc(-c3nc([C@H]4CC[C@H](C(=O)O)CC4)n4ncnc(N)c34)[nH]c12 [OSI-027] (partner 0.5 µM)
Outline: as §1

[4] = compound: O=C(O)C(Cc1ccccc1[N+](=O)[O-])=NNc1nc(-c2ccc(Cl)c(Cl)c2)cs1 (mixture of isomers) [4EGI-1] + NC(=O)Nc1cc(-c2cccc(F)c2)sc1C(=O)N[C@H]1CCCNC1 [AZD7762] (partner 0.2 µM)
Outline: as §1

Cell Line	relative viability ([1]; first compound 0.5 µM)	relative viability ([1]; first compound 1.581 µM)	relative viability ([1]; first compound 5 µM)	relative viability ([1]; first compound 15.81 µM)	relative viability ([1]; first compound 50 µM)	relative viability ([2]; first compound 0.5 µM)	relative viability ([2]; first compound 1.581 µM)	relative viability ([2]; first compound 5 µM)	relative viability ([2]; first compound 15.81 µM)	relative viability ([2]; first compound 50 µM)	relative viability ([3]; first compound 0.08 µM)	relative viability ([3]; first compound 0.253 µM)	relative viability ([3]; first compound 0.8 µM)	relative viability ([3]; first compound 2.53 µM)	relative viability ([3]; first compound 8 µM)	relative viability ([4]; first compound 0.5 µM)	relative viability ([4]; first compound 1.581 µM)	relative viability ([4]; first compound 5 µM)	relative viability ([4]; first compound 15.81 µM)	relative viability ([4]; first compound 50 µM)
SW 1573	0.227	0.198	0.248	0.168	0.116	1.33	0.86	1.17	0.898	1.17	0.566	0.61	0.669	0.607	0.327	–	–	–	–	–
EBC-1	–	–	–	–	–	0.205	0.246	0.201	0.217	0.166	–	–	–	–	–	–	–	–	–	–
NCI-H520	0.231	0.241	0.184	0.256	0.205	0.98	0.882	0.963	0.738	0.144	0.245	0.257	0.232	0.257	0.195	–	–	–	–	–
ChaGo-K-1	0.631	0.38	0.62	0.517	0.491	–	–	–	–	–	0.555	0.532	0.599	0.605	0.422	0.875	0.87	0.876	0.897	0.465
NCI-H1623	0.637	0.553	0.707	0.383	0.387	–	–	–	–	–	0.44	0.395	0.349	0.413	0.368	–	–	–	–	–
NCI-H1650	0.197	–	0.19	0.203	0.221	0.953	–	0.825	0.374	0.256	0.674	0.47	0.599	0.637	0.357	–	–	–	–	–
NCI-H661	0.883	0.76	0.798	0.606	0.505	0.666	0.46	0.566	0.43	0.342	0.636	0.709	0.775	0.806	0.515	–	–	–	–	–
NCI-H1648	–	–	–	–	–	–	–	–	–	–	0.248	0.268	–	–	0.228	0.662	0.674	0.707	0.602	0.517
NCI-H2342	0.854	0.758	0.724	0.904	0.677	–	–	–	–	–	0.606	0.605	–	0.594	0.641	0.441	0.477	0.501	0.559	0.308
NCI-H2228	0.147	0.148	0.258	0.135	0.17	1.36	1.1	1.03	0.803	0.172	0.544	0.879	0.686	0.6	0.336	–	–	–	–	–
NCI-H441	0.375	0.315	0.294	0.306	0.292	–	–	–	–	–	0.522	0.65	0.654	0.699	0.68	1.38	1.13	1.28	1.08	0.772
Calu-6	–	–	–	–	–	1.07	1	1.03	1	0.206	–	–	–	–	–	–	–	–	–	–
COR-L23	0.843	0.519	0.77	0.579	0.0992	1.13	0.826	0.981	0.536	0.14	0.592	–	0.91	0.733	0.597	–	–	–	–	–
